Experimental data from patent US8987473B2, “Ring-fused compound” (Sato Pharmaceutical Co., Ltd., priority 2011, dated 2015).

target: human URAT1 (Homo sapiens (Human), UniProt Q96S37); assay: Test for uric acid transport inhibition using human URAT1 expression cell; format: cell-based; conditions: human URAT1 stable expression CHO cell; 14C-labeled uric acid 38 μM final concentration; incorporation at room temperature for 5 minutes; 100% window defined with benzbromarone 100 μM; read-out: URAT1 Inhibitory Activity (IC50)
Description: In this Example, it was evaluated whether the Example compound has the URAT1 inhibitory activity.
Human URAT1 full-length cDNA was introduced to an expression vector pcDNA5/FRT/V5-His TOPO (registered trademark) (Invitrogen Corporation). The obtained expression plasmid was introduced to Chinese hamster ovary cell (hereinafter referred to as the CHO cell) by the liposome method using Lipofectamine LTX (Invitrogen), and cultured in a selection medium including hygromycin, whereby to prepare human URAT1 stable expression cell.
The human URAT1 expression CHO cell was cultured using D-MEM/F-12 (1:1) mixed medium including 10% bovine fetal serum and hygromycin at 37° C. in the presence of 5% CO2. The cells were seeded onto a 96 well plate (Corning Incorporated) in 0.8×10^5 cells/well, and after 24 hours, the test for uric acid transport inhibition below was performed.
The medium was removed by aspiration, and then the cells were washed once with an assay buffer including 125 mM of sodium gluconate, 4.8 mM of potassium gluconate, 1.2 mM of potassium dihydrogen phosphate, 1.2 mM of magnesium sulfate, 1.3 mM of calcium gluconate and 5.6 mM of glucose. 50 μL assay buffer including the test compound in various concentrations was added, and further 50 μL assay buffer including a radioactive ligand (uric acid labeled with ^14C; 38 μM final concentration) was added, and incorporation reaction was performed at room temperature for 5 minutes. Immediately after completion of the reaction, the reaction mixture was washed twice with 100 μL ice-cold assay buffer, and 100 μL of 0.1 N sodium hydroxide was added. The reaction mixture was stirred to lyse the cells, and 4 mL Hionic-Fluor (Packard BioScience CO) was added, and then the radioactivity was measured with a liquid scintillation counter (Beckman Coulter, Inc. and Packard BioScience CO).
The radioactivity when each concentration of the test compound was added (uric acid incorporation activity, %) was calculated in which the difference of the radioactivity when the test compound was not added (DMSO added), and the radioactivity when a positive control compound, benzbromarone (known URAT1 inhibitor) was added in 100 μM, was taken as 100%, and the concentration of the test compound when the uric acid incorporation activity was inhibited to 50% (IC50) was obtained.

Chain of human URAT1 (Q96S37 whole entry): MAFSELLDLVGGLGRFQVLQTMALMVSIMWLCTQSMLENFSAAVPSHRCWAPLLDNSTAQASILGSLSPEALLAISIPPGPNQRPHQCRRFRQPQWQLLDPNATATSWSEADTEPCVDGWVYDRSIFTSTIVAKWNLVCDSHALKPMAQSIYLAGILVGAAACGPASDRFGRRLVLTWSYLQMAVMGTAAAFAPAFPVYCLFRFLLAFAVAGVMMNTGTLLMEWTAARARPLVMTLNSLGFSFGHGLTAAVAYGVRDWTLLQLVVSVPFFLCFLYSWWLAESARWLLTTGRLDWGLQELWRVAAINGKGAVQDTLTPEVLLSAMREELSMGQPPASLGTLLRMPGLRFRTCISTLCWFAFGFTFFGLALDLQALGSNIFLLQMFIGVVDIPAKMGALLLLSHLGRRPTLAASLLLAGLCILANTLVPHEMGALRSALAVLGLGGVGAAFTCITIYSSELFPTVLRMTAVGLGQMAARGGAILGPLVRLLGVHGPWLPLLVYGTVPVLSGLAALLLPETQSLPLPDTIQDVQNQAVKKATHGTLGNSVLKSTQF

Row | Compound | IC50 [nM]
1 | CCc1nn(Cc2c(Cl)cccc2Cl)c2cc(-c3nnn[nH]3)cnc12 [Example 171, 1-(2,6-dichlorobenzyl)-3-ethyl-6-(1H-tetrazole-5-yl)-1H-pyrazolo[4,3-b]pyridine] | 52
2 | Cc1nn(Cc2c(Cl)cccc2Cl)c2cc(C(O)C(=O)O)ccc12 (stereo not shown) [Example 128, [1-(2,6-dichlorobenzyl)-3-methyl-1H-indazole-6-yl]hydroxyacetic acid] | 576
3 | Cc1nn(Cc2c(Cl)cccc2Cl)c2cc(Cc3n[nH]c(=O)o3)ccc12 [Example 136, 5-{[1-(2,6-dichlorobenzyl)-3-methyl-1H-indazole-6-yl]methyl}-1,3,4-oxadiazol-2(3H)-one] | 34
4 | CCc1nn(Cc2c(C)cccc2Cl)c2cc(C(=O)O)cnc12 [Example 170, 1-(2-chloro-6-methylbenzyl)-3-ethyl-1H-pyrazolo[4,3-b]pyridine-6-carboxylic acid] | 80
5 | Cc1nn(Cc2c(Cl)cccc2Cl)c2cc(CCC(=O)O)ccc12 [Example 122, 3-[1-(2,6-dichlorobenzyl)-3-methyl-1H-indazole-6-yl]propionic acid] | 10
6 | CCc1nn(Cc2c(Cl)cccc2Cl)c2cc(-c3nnn[nH]3)ccc12 [Example 182, 1-(2,6-dichlorobenzyl)-3-ethyl-6-(1H-tetrazole-5-yl)-1H-indazole] | 52
7 | Cc1nn(Cc2c(Cl)cccc2Cl)c2cc(CCC(N)=O)ccc12 [Example 132, 3-[1-(2,6-dichlorobenzyl)-3-methyl-1H-indazole-6-yl]propionamide] | 186
8 | Cc1cccc(C)c1Cn1nc(Cl)c2ccc(C(=O)O)cc21 [Example 149, 3-chloro-1-(2,6-dimethylbenzyl)-1H-indazole-6-carboxylic acid] | 53
9 | Cc1cc(C)c(Cn2nc(C)c3ccc(CC(=O)O)cc32)c(C)c1 [Example 108, 2-[3-methyl-1-(2,4,6-trimethylbenzyl)-1H-indazole-6-yl]acetic acid] | 94
10 | Cc1nn(Cc2cccc(Cl)c2Cl)c2cc(-c3nnn[nH]3)cnc12 [Example 158, 1-(2,3-dichlorobenzyl)-3-methyl-6-(1H-tetrazole-5-yl)-1H-pyrazolo[4,3-b]pyridine] | 292
11 | CCc1nn(Cc2c(Cl)cccc2Cl)c2cc(C(=O)O)ccc12 [Example 144, 1-(2,6-dichlorobenzyl)-3-ethyl-1H-indazole-6-carboxylic acid] | 42
12 | O=C(O)c1cnc2c(Cl)nn(Cc3c(Cl)cccc3Cl)c2c1 [Example 172, 3-chloro-1-(2,6-dichlorobenzyl)-1H-pyrazolo[4,3-b]pyridine-6-carboxylic acid] | 162
13 | Cc1nn(Cc2c(Cl)cccc2C#N)c2cc(CCC(=O)O)ccc12 [Example 125, 3-[1-(2-chloro-6-cyanobenzyl)-3-methyl-1H-indazole-6-yl]propionic acid] | 72
14 | Cc1cccc(C)c1Cn1cc(C)c2ccc(CC(=O)O)cc21 [Example 64, 2-[1-(2,6-dimethylbenzyl)-3-methyl-1H-indole-6-yl]acetic acid] | 22
15 | Cc1cccc(C)c1Cn1nc(C(C)C)c2ccc(CC(=O)O)cc21 [Example 147, 2-[1-(2,6-dimethylbenzyl)-3-isopropyl-1H-indazole-6-yl]acetic acid] | 76
16 | Cc1cccc(C)c1CN1CC(C)c2ccc(CC(=O)O)cc21 (stereo not shown) [Example 78, (3-RS)-2-[1-(2,6-dimethylbenzyl)-2,3-dihydro-3-methyl-1H-indole-6-yl]acetic acid] | 24
17 | Cc1nn(Cc2c(Cl)cccc2Cl)c2cc(Cc3nnn[nH]3)ccc12 [Example 134, 1-(2,6-dichlorobenzyl)-3-methyl-6-(1H-tetrazole-5-ylmethyl)-1H-indazole] | 13

Row | Compound | IC50 [nM]
18 | Cc1cccc(C)c1Cn1cc(C)c2ccc(C(=O)O)cc21 [Example 61, 1-(2,6-dimethylbenzyl)-3-methyl-1H-indole-6-carboxylic acid] | 46
19 | Cc1nn(Cc2c(Cl)cccc2Cl)c2cc(C(=O)O)ccc12 [Example 119, 1-(2,6-dichlorobenzyl)-3-methyl-1H-indazole-6-carboxylic acid] | 65
20 | CCc1nn(Cc2c(Cl)cccc2Cl)c2cc(CCC(=O)O)ccc12 [Example 145, 3-[1-(2,6-dichlorobenzyl)-3-ethyl-1H-indazole-6-yl]propionic acid] | 26
21 | Cc1cccc(C)c1Cn1c(=O)n(C(C)C)c2ccc(C(=O)O)cc21 [Example 186, 3-(2,6-dimethylbenzyl)-1-isopropyl-2-oxo-2,3-dihydro-1H-benzimidazole-5-carboxylic acid] | 165
22 | CCc1nn(Cc2c(Cl)cccc2Cl)c2cc(/C=C/C(=O)O)ccc12 [Example 146, (E)-3-[1-(2,6-dichlorobenzyl)-3-ethyl-1H-indazole-6-yl]acrylic acid] | 53
23 | Cc1cccc(C)c1Cn1nc(C)c2ccc(C(=O)O)cc21 [Example 117, 1-(2,6-dimethylbenzyl)-3-methyl-1H-indazole-6-carboxylic acid] | 91
24 | Cc1cn(Cc2cccc(Cl)c2Cl)c2cc(CC(=O)O)ccc12 [Example 84, 2-[1-(2,3-dichlorobenzyl)-3-methyl-1H-indole-6-yl]acetic acid] | 53
25 | Cc1nn(Cc2cccc(Cl)c2Cl)c2cc(CC(=O)O)ccc12 [Example 99, 2-[1-(2,3-dichlorobenzyl)-3-methyl-1H-indazole-6-yl]acetic acid] | 41
26 | Cc1nn(Cc2c(Cl)cccc2Cl)c2cc(Cc3n[nH]c(=S)o3)ccc12 [Example 137, 5-{[1-(2,6-dichlorobenzyl)-3-methyl-1H-indazole-6-yl]methyl}-1,3,4-oxadiazol-2(3H)-thione] | 10
27 | Cc1cccc(C)c1CN1CCc2ccc(CC(=O)O)cc21 [Example 75, 2-[1-(2,6-dimethylbenzyl)-2,3-dihydro-1H-indole-6-yl]acetic acid] | 77
28 | Cc1nn(Cc2c(Cl)cccc2Cl)c2cc(OCC(=O)O)ccc12 [Example 138, 2-[1-(2,6-dichlorobenzyl)-3-methyl-1H-indazole-6-yloxy]acetic acid] | 916
29 | Cc1nn(Cc2c(Cl)cccc2C2CC2)c2cc(-c3nnn[nH]3)cnc12 [Example 164, 1-(2-chloro-6-cyclopropylbenzyl)-3-methyl-6-(1H-tetrazole-5-yl)-1H-pyrazolo[4,3-b]pyridine] | 55
30 | Cc1cn(Cc2ccccc2Cl)c2cc(CC(=O)O)ccc12 [Example 87, 2-[1-(2-chlorobenzyl)-3-methyl-1H-indole-6-yl]acetic acid] | 88
31 | Cc1nn(Cc2c(Cl)cccc2Cl)c2cc(CCCC(=O)O)ccc12 [Example 133, 4-[1-(2,6-dichlorobenzyl)-3-methyl-1H-indazole-6-yl]butyric acid] | 16
32 | Cc1nn(Cc2csc3ccc(Cl)cc23)c2cc(CC(=O)O)ccc12 [Example 106, 2-{1-[(5-chlorobenzo[b]thiophene-3-yl)methyl]-3-methyl-1H-indazole-6-yl}acetic acid] | 55
33 | Cc1nn(Cc2c(Cl)cccc2Cl)c2cc(C(=O)O)cnc12 [Example 153, 1-(2,6-dichlorobenzyl)-3-methyl-1H-pyrazolo[4,3-b]pyridine-6-carboxylic acid] | 361
34 | Cc1nn(Cc2c(Cl)cccc2Cl)c2nc(Cc3nnn[nH]3)ccc12 [Example 152, 1-(2,6-dichlorobenzyl)-3-methyl-6-(1H-tetrazole-5-ylmethyl)-1H-pyrazolo[3,4-b]pyridine] | 184
